Key:
nerf sciatique [1] = assay: Regeneration of the sciatic nerve after exposure to cold (plantar pain perception, Randal et Sellito apparatus); assay type: in vivo, rats Charles RIVER; details: 500 mg/kg P.U/jour
Method: L'étude est menée sur des lots de rats Charles RIVER (100-110 g), anesthésiés au Mébubarbital (30 mg/kg I.P).
Le nerf sciatique droit est isolé et on en pratique la congélation sur une longueur de 3 mm, au niveau du tiers supérieur de la cuisse. Cette congélation est réalisée par applications successives, pendant 30 secondes chacune, de petites masses métalliques adaptées sur un champ d'artère et plongées, préalablement, dans l'azote liquide.
Le traitement par les produits à étudier est pratique à partir du premier jour après l'opération (J₁), jusqu'à J₁₂.
La regénération nerveuse éventuelle est recherchée par la mesure de la perception douloureuse au niveau plantaire des deux pattes postérieures des animaux, en utilisant l'appareil de Randal et Sellito qui permet l'évaluation de la sensibilité locale par application d'un poids progressivement augmenté en fonction du temps.
Les résultats sont exprimés à partir des mesures réalisées sur chaque patte, 4 heures après le dernier traitement. La valeur de la regénération de la sensibilité, donc de la regénération nerveuse, est représentée par la différence de réponse au test de la patte au nerf lésé par rapport à la patte contralatérale intacte.
L'analyse statistique est faite sur les deux séries de valeurs par analyse de Kruskall-Wallis et test U de Mann-Whitney. […]

nerf sciatique [2] = assay: Speed of sensory reinnervation after freezing lesion of the sciatic nerve (latency of somesthetic evoked potential); assay type: in vivo, rat whistar mâle; details: 150 mg/kg, another batch of rats (Fig. 2)
Method: La vitesse de réinnervation sensitive après lésion du nerf sciatique et dégénérescence wallerienne a été étudiée chez le rat whistar mâle de 210 g ± 10 g. Le nerf sciatique droit a été lésé par congélation au moyen d'une cryode à cataracte portée à -170°C pendant 30 secondes en 3 points d'une même circonférence, située au tiers supérieur de la cuisse, à 90 ± 5 mm de la pénétration du nerf dans la région plantaire. Le nerf fémoris interne était excisé sur plusieurs cm. La récupération sensitive a été appréciée en mesurant la latence du potentiel évoqué somesthésique recueilli au niveau de l'aire primaire contralatérale et homolatérale, au moyen d'électrodes métalliques extra-durémériennes scéllées et laissées à demeure. La réponse était évoquée en stimulant le coussinet le plus interne de la sole plantaire droite au moyen d'un choc électrique de 5 mA délivré à courant constant pendant 2 ms toutes les 620 ms. Les réponses étaient moyennées de 500 à 2.000 fois et leurs latences mesurées avec une précision de ± 0,5 ms.
La latence de la réponse positive (P1) la plus précoce et à seuil le plus bas, a été mesurée et comparée chez trois groupes d'animaux aux jours J +25, +29, +33, +38, +43. Le groupe de témoins (n=11) a reçu par gavage 6 jours sur 7, 0,5 g/kg de gomme arabique. […]

| SMILES | réactivité (perception douloureuse au niveau plantaire, patte lésée vs patte contralatérale) (nerf sciatique [1]; sixth day after operation, oral, in water) | amélioration de la réactivité (regénération de la sensibilité) (nerf sciatique [1]; twelfth day after operation, 4 h after last treatment, oral (plate no. 3)) | modification dans la regénération des fibres nerveuses (nerf sciatique [2]) |
| --- | --- | --- | --- |
| CN(C)CCOC(=O)COc1ccc(Cl)cc1 [Méclofénoxate] | tendance à une meilleure réactivité | l'amélioration est significative | – |
| CC(C)Nc1ncccn1 [isaxonine] | – | – | aucune modification sensible |

Source: patent publication EP0555938A1, “Use of phenoxyacetate derivatives for the restoration of neural function” (Albert ROLLAND S.A., priority 1992, dated 1993)
